From patent publication US8387699B2, “Green coal bed methane fracturing fluid compositions, methods of preparation and methods of use” (Calfrac Well Services Ltd., priority 2008, dated 2013)

System: Vibrio fischeri NRRL-B-11177
Assay: Microtox™ toxicity test (light emission of bioluminescent bacterium)
Type: cell-based
Details: constituent at the loading given; for EC50 Result (%): normally 50% light reduction over 15 minute at 15°C
Description: Under the Microtox™ protocols, the viability of known bacterial cultures is measured within a sample to produce a numeric result as well as a “pass/fail” indication.
The test is performed by rehydrating freeze dried cultures of the organism, supplied as the Microtox™ reagent and determining the initial light output of homogenized bacterial suspensions. Aliquots of osmotically adjusted sample and sample dilutions are added to the bacterial suspension, and light measurements are made at specific intervals (generally at 5 or 15 minutes) after exposure to test samples. The diluent control (blank) is used to correct time-dependant change in light output.
The Microtox™ test endpoint is measured as the effective or inhibitory concentration of a test sample that reduces light emission by a specific amount under defined conditions of time and temperature. Normally, this is expressed as an ECSO(15) or ICSO(15) which is the effective concentration or inhibitory concentration of a sample that reduces light emission of the test organism by 50% over a 15 minute test period at 15°C.
The EC50 or IC50 is calculated by log linear plotting of Concentration (C) vs percent Light Decrease (percent A), or more precisely by plotting Gamma Q (which is the corrected ratio of the amount of light lost to the amount of light remaining) versus Concentration on a log-log graph. Either a hand calculator or computer program data reduction systems may be used to calculate Gamma and the corresponding EC50 or ICSO values.
Thus, the desired loading for a fracturing fluid is determined and the viscosifier diluted to that loading in water and subjected to standardized Microtox™ testing.

Row | Compound | Pass/Fail | EC50 Result (%)
1 | O=CO [0.002 wt % formic acid, formic acid] | Pass (>75% EC50 result is required for pass) | >91
2 | [Cl-].[K+] [4 wt % KCl water, KCl] | – | >91
3 | C[Si]1(C)O[Si](C)(C)O[Si](C)(C)O[Si](C)(C)O1 [octamethylcyclotetrasiloxane] | Pass (>75% EC50 result is required for pass) | 82
4 | hemicellulase enzyme [hemicellulase enzyme (0.02 wt %)] | – | >91
